Results published in PubChem BioAssay AID248 (DTP/NCI, 2004).
Several values for one entry are separate records, joined by “and”; a condition that tells them apart may be missing. Identical values can stand only once. Inconclusive results and toxic doses are left out. Cut-off read from the data, not from the text of the source: active = T/C of 150% or more; inactive = T/C below 125%.

Test system: L1210 leukemia ip in BDF1 mice, survival T/C
Experiment: NCI In Vivo Anticancer Drug Screen. Data for tumor model L1210 Leukemia (intraperitoneal) in B6D2F1 (BDF1) mice
Conditions: endpoint: mean survival time, higher = longer survival
Method in brief: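 Antitumor effect is assessed in tumor-bearing animals. Survival in the compound arm is compared with a vehicle-dosed control arm and expressed as their quotient.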

[1] = dose: 100.0 mg/kg/injection, schedule: Q01DX001 (ip), vehicle: carboxymethylcellulose (CMC)
[2] = dose: 100.0 mg/kg/injection, schedule: Q04DX002 (ip), vehicle: saline with Tween-80
[3] = dose: 200.0 mg/kg/injection, schedule: Q01DX001 (ip), vehicle: carboxymethylcellulose (CMC)
[4] = dose: 200.0 mg/kg/injection, schedule: Q04DX002 (ip), vehicle: saline with Tween-80
[5] = dose: 400.0 mg/kg/injection, schedule: Q01DX001 (ip), vehicle: carboxymethylcellulose (CMC)
[6] = dose: 400.0 mg/kg/injection, schedule: Q04DX002 (ip), vehicle: saline with Tween-80
[7] = dose: 100.0 mg/kg/injection, schedule: Q04DX003 (ip), vehicle: Klucel (hydroxypropylcellulose) (HPC)
[8] = dose: 100.0 mg/kg/injection, schedule: Q04DX003 (ip), vehicle: saline with Tween-80
[9] = dose: 100.0 mg/kg/injection, schedule: Q04DX003 (ip), vehicle: saline
[10] = dose: 200.0 mg/kg/injection, schedule: Q04DX003 (ip), vehicle: saline with Tween-80
[11] = dose: 200.0 mg/kg/injection, schedule: Q04DX003 (ip), vehicle: saline
[12] = dose: 400.0 mg/kg/injection, schedule: Q04DX003 (ip), vehicle: saline with Tween-80
[13] = dose: 400.0 mg/kg/injection, schedule: Q04DX003 (ip), vehicle: saline
[14] = dose: 100.0 mg/kg/injection, schedule: Q01DX009 (ip), vehicle: saline with Tween-80
[15] = dose: 200.0 mg/kg/injection, schedule: Q01DX009 (ip), vehicle: saline with Tween-80
[16] = dose: 200.0 mg/kg/injection, schedule: Q04DX003 (ip), vehicle: Klucel (hydroxypropylcellulose) (HPC)
[17] = dose: 400.0 mg/kg/injection, schedule: Q01DX009 (ip), vehicle: saline with Tween-80
[18] = dose: 400.0 mg/kg/injection, schedule: Q04DX003 (ip), vehicle: Klucel (hydroxypropylcellulose) (HPC)
[19] = dose: 100.0 mg/kg/injection, schedule: Q01DX009 (ip), vehicle: Klucel (hydroxypropylcellulose) (HPC)
[20] = dose: 200.0 mg/kg/injection, schedule: Q01DX009 (ip), vehicle: Klucel (hydroxypropylcellulose) (HPC)
[21] = dose: 400.0 mg/kg/injection, schedule: Q01DX009 (ip), vehicle: Klucel (hydroxypropylcellulose) (HPC)

Measured: T/C

O=C(O)c1c(O)c2cc([N+](=O)[O-])ccc2oc1=O
inactive: [1] 89 % of control | [2] 95 % of control and 111 % of control | [3] 103 % of control | [4] 114 % of control | [5] 100 % of control | [6] 115 % of control

O=c1c(Br)cc(Cl)nc2c(Br)cc(Br)cc12
inactive: dose: 12.0 mg/kg/injection, schedule: Q01DX009 (ip), vehicle: Klucel (hydroxypropylcellulose) (HPC) 103 % of control | dose: 25.0 mg/kg/injection, schedule: Q01DX009 (ip), vehicle: Klucel (hydroxypropylcellulose) (HPC) 103 % of control | dose: 25.0 mg/kg/injection, schedule: Q04DX003 (ip), vehicle: Klucel (hydroxypropylcellulose) (HPC) 102 % of control | dose: 50.0 mg/kg/injection, schedule: Q01DX009 (ip), vehicle: Klucel (hydroxypropylcellulose) (HPC) 96 % of control and 89 % of control | dose: 50.0 mg/kg/injection, schedule: Q04DX003 (ip), vehicle: Klucel (hydroxypropylcellulose) (HPC) 98 % of control | [7] 93 % of control and 91 % of control

Clc1cccc2ccc(-c3cc4ccccc4s3)nc12
inactive: dose: 50.0 mg/kg/injection, schedule: Q01DX001 (ip), vehicle: saline 102 % of control | dose: 100.0 mg/kg/injection, schedule: Q01DX001 (ip), vehicle: saline 101 % of control | dose: 200.0 mg/kg/injection, schedule: Q01DX001 (ip), vehicle: saline 101 % of control | dose: 400.0 mg/kg/injection, schedule: Q01DX001 (ip), vehicle: saline 106 % of control

CCCCCCCCCCCCCCCCCC(=O)Oc1c(C(C)(C)C)cc([N+](=O)[O-])c(C)c1[N+](=O)[O-]
inactive: dose: 100.0 mg/kg/injection, schedule: Q04DX002 (ip), vehicle: Klucel (hydroxypropylcellulose) (HPC) 92 % of control | dose: 200.0 mg/kg/injection, schedule: Q04DX002 (ip), vehicle: Klucel (hydroxypropylcellulose) (HPC) 92 % of control | dose: 400.0 mg/kg/injection, schedule: Q04DX002 (ip), vehicle: Klucel (hydroxypropylcellulose) (HPC) 96 % of control

CC(=O)ON1C(=O)c2cccc3cccc(c23)C1=O
inactive: [2] 102 % of control | [4] 109 % of control

CCC(C(N)=O)N1C(=O)C2C3CCC(C3)C2C1=O (stereo not drawn)
inactive: [8] 90 % of control | [9] 107 % of control | [10] 100 % of control | [11] 107 % of control | [12] 100 % of control | [13] 98 % of control

COC(=O)C1CC2c3ccccc3C1c1ccccc12 (stereo not drawn)
inactive: [14] 110 % of control | [7] 108 % of control | dose: 176.0 mg/kg/injection, schedule: Q01DX001 (ip), vehicle: carboxymethylcellulose (CMC) 96 % of control and 92 % of control | [15] 89 % of control | [16] 97 % of control | dose: 264.0 mg/kg/injection, schedule: Q01DX001 (ip), vehicle: carboxymethylcellulose (CMC) 93 % of control | [5] 95 % of control | [17] 95 % of control | [18] 93 % of control | dose: 600.0 mg/kg/injection, schedule: Q01DX001 (ip), vehicle: carboxymethylcellulose (CMC) 98 % of control

O=C(NCCCl)Nc1ccncc1
inactive: dose: 1.25 mg/kg/injection, schedule: Q01DX009 (ip), vehicle: Klucel (hydroxypropylcellulose) (HPC) 97 % of control | dose: 2.5 mg/kg/injection, schedule: Q01DX009 (ip), vehicle: Klucel (hydroxypropylcellulose) (HPC) 88 % of control | dose: 2.5 mg/kg/injection, schedule: Q04DX003 (ip), vehicle: Klucel (hydroxypropylcellulose) (HPC) 100 % of control | dose: 5.0 mg/kg/injection, schedule: Q04DX003 (ip), vehicle: Klucel (hydroxypropylcellulose) (HPC) 103 % of control

CC(=O)C1(C)CC=CCC1C(=O)O (stereo not drawn)
inactive: dose: 100.0 mg/kg/injection, schedule: Q01DX009 (ip), vehicle: saline 107 % of control | [9] 119 % of control | dose: 200.0 mg/kg/injection, schedule: Q01DX009 (ip), vehicle: saline 116 % of control | [11] 101 % of control | dose: 400.0 mg/kg/injection, schedule: Q01DX009 (ip), vehicle: saline 107 % of control | [13] 106 % of control

CC(=O)OCCN(C)C
inactive: dose: 75.0 mg/kg/injection, schedule: Q01DX009 (ip), vehicle: saline 104 % of control | dose: 100.0 mg/kg/injection, schedule: Q04DX002 (ip), vehicle: saline 100 % of control | dose: 150.0 mg/kg/injection, schedule: Q01DX009 (ip), vehicle: saline 101 % of control | dose: 200.0 mg/kg/injection, schedule: Q04DX002 (ip), vehicle: saline 110 % of control | dose: 300.0 mg/kg/injection, schedule: Q01DX009 (ip), vehicle: saline 101 % of control | dose: 400.0 mg/kg/injection, schedule: Q04DX002 (ip), vehicle: saline 113 % of control

Clc1ccc(N(c2ccccc2)c2ccccc2)cc1
inactive: [1] 115 % of control | [3] 100 % of control | [5] 108 % of control

N#CC1CC2([N+](=O)[O-])c3ccccc3C1c1ccccc12 (stereo not drawn)
inactive: [19] 96 % of control | [7] 105 % of control | [9] 105 % of control | [20] 102 % of control | [16] 108 % of control | [11] 108 % of control | [21] 94 % of control | [18] 102 % of control | [13] 102 % of control

Cc1ccc(C)c(NC(=O)N(CC(O)c2ccccc2)C2CCCCC2)c1 (stereo not drawn)
inactive: [19] 103 % of control | [7] 96 % of control | [20] 97 % of control | [16] 100 % of control | [21] 95 % of control | [18] 104 % of control

COc1cc(Oc2c(OC)cc(C(C)=O)cc2OC)cc(OC)c1OC
inactive: [8] 101 % of control | [10] 97 % of control | [12] 97 % of control

CC(=O)Nc1nnc(SC(C)=O)s1
inactive: [19] 95 % of control and 90 % of control | [20] 95 % of control | [21] 93 % of control and 94 % of control

Cc1ccc(C)c(NC(=O)Nc2c(C)n(C)n(-c3ccccc3)c2=O)c1
inactive: [19] 96 % of control | [7] 97 % of control | [20] 95 % of control | [16] 89 % of control | [18] 93 % of control

c1ccc(-c2nnc3oc(-c4ccco4)nn23)cc1
inactive: [14] 100 % of control | [8] 96 % of control | [15] 101 % of control | [10] 102 % of control | [17] 101 % of control | [12] 94 % of control

C(=N\n1cnnc1)/c1ccc(/C=N/n2cnnc2)cc1
inactive: [14] 98 % of control | [8] 105 % of control | [15] 88 % of control | [10] 105 % of control | [17] 89 % of control | [12] 98 % of control

O=C(Cl)COc1c(Cl)cc(Cl)cc1Cl
inactive: [2] 107 % of control | [4] 107 % of control | [6] 103 % of control

O=Cc1nc2ccccc2cc1CCl
inactive: dose: 75.0 mg/kg/injection, schedule: Q01DX001 (ip), vehicle: saline 92 % of control
